Test results from patent US20220380357A1, “TETRAHYDROISOQUINOLINE COMPOUNDS” (ALLINKY BIOPHARMA, priority 2019, published 2022).

How the values were obtained:
[1] = tested on: RPMI. myeloma cell line bearing KRas^G12A oncogenic mutation; experiment: Antiproliferative MTS assay, RPMI cells; assay type: cell-based; settings: 72 h, compounds 1-23 and 47-52 median of experiments, 24-46 estimations and/or preliminary results, read-out: IC50 values: cell proliferation inhibition, RPMI
Protocol: Cell line #4: RPMI. myeloma cell line bearing KRas^G12A oncogenic mutation
(§1) Cell lines were cultured in DMEM or RPMI-1640 supplemented with FBS 10%. In order to assess the antiproliferative effect of compounds, cells were seeded at a density of 1.8×10^3, 6.2×10^3, 7.8×10^3, 21×10^3 and 2×10^3 cells/cm^2, respectively, in tissue culture microplates and were incubated in humidified atmosphere at 5% CO2. 24 h later, compounds dissolved in DMSO 100% were added for different final concentrations ranging between 0.1 and 50 μM for a final DMSO concentration of 0.5% and the plates were incubated for another 72 h. After incubation, proliferation was quantified using CellTiter 96® Aqueous Non-Radioactive Cell Proliferation Assay-MTS (Promega #G5421) following manufacturer instructions. Amount of 490 nm absorbance is directly proportional to the number of living cells. Absorbance was recorded with a BMG Fluostar Optima Microplate Reader and normalized to control with vehicle.

[2] = tested on: A549. Lung carcinoma cell line bearing KRas^G12S oncogenic mutation; experiment: Antiproliferative MTS assay, A549 cells; assay type: cell-based; settings: Homo sapiens, A549, 72 h, compounds 1-23 and 47-52 median of experiments, 24-46 estimations and/or preliminary results, read-out: IC50 values: cell proliferation inhibition, A549
Protocol: Cell line #1: A549. Lung carcinoma cell line bearing KRas^G12S oncogenic mutation
as §1

[3] = tested on: H358. non-small cell lung cancer line bearing KRas^G12C oncogenic mutation; experiment: Antiproliferative MTS assay, H358 cells; assay type: cell-based; settings: Homo sapiens, NCI-H358, 72 h, compounds 1-23, 47-52 and Reference Example 1 median of experiments, 24-46 estimations and/or preliminary results, read-out: IC50 values: cell proliferation inhibition, H358
Protocol: Cell line #2: H358. non-small cell lung cancer line bearing KRas^G12C oncogenic mutation
as §1

NIH-H358 Cell Line = experiment: 3D CellTiter-Glo cell viability assay; assay type: cell-based; settings: 168 h, NIH-H358 cells in 0.65% methylcellulose, 7 days' compound treatment
Protocol: Example 5: Efficacy Testing in 3D Viability Assay for NIH-H358 Cell Line
The protocol to perform 3D CellTiter-Glo™ cell viability assay is as follows:
Day—1: Cell plating • Adjust cell concentrations to 1×10^5 cells/ml with respective medium. (Cell concentration is adjusted according to data base or density optimization assay). Mix 3.5 mL of cell suspension 6.5 mL of 1% methylcellulose. Mix and wait for bubbles to disperse before pipetting. This step yields 10 ml of cell suspension in 0.65% methylcellulose solution. Add 99.5 μL cell suspensions to 96-well plates according to plate map with final cell density. • Two duplicate plates will be set up. One is for day 0 reading (T0) and the other will be cultured in incubator for reading at the end point. • Incubate the plates overnight in humidified incubator at 37° C. with 5% CO2.
Day 0: T0 plate reading and compound treatment • Take T0 plate, add 0.5 μL culture medium to each well for T0 reading. • Add 100 μl CellTiter-Glo® Reagent to each well. • Mix contents for 2 minutes on an orbital shaker to facilitate cell lysis. • Allow the plate to incubate at room temperature for 10 minutes to stabilize luminescent signal. • Record luminescence using EnVision Multi Label Reader. • Dilute the test articles at the concentration indicated at Test Articles Dilution. Add 0.5 μL of each 200× compound working solutions according to plate inoculation map.
Day 7: Plate reading of 7 days' compound treatment • Add 100 μL CellTiter-Glo® Reagent to each well. • Mix contents for 2 minutes on an orbital shaker to facilitate cell lysis. • Allow the plate to incubate at room temperature for 10 minutes to stabilize luminescent signal. • Record luminescence using EnVision Multi Label Reader.

[4] = tested on: PANC-1. epithelioid carcinoma of the pancreas cell line bearing KRas^G12D oncogenic mutation; experiment: Antiproliferative MTS assay, PANC-1 cells; assay type: cell-based; settings: Homo sapiens, PANC-1, 72 h, compounds 1-23 and 47-52 median of experiments, 24-46 estimations and/or preliminary results, read-out: IC50 values: cell proliferation inhibition, Panc-1
Protocol: Cell line #3: PANC-1. epithelioid carcinoma of the pancreas cell line bearing KRas^G12D oncogenic mutation
as §1

[5] = Body weight and tolerability in xenograft studies; assay type: in vivo; settings: 20 mg/kg BID peroral, mice bearing NCI-H358 xenograft
Text: (§2) Evaluation of the efficacy of compounds 6, 11 and 13 in the treatment of subcutaneous NCI-H358 Human Lung Cancer Model in NCr nude mice.
(§3) The treatment with compound 6 started when the tumors size reached 170 mm^3 (study 1). This value was 190 mm^3 in the case of compounds 11 and 13 (study 2).
The results of the body weight changes in the tumor bearing mice are shown in FIG. 1 (p.o. is peroral; i.p. is intraperitoneal). The body weight of the animals at the end of the treatment with the three compounds was only slightly below the body weight of the respective vehicle control groups.

[6] = tested on: subcutaneous NCI-H358 Human Lung Cancer Model; experiment: Efficacy in xenograft studies (tumor growth inhibition); assay type: in vivo, NCr nude mice; settings: for Oral anti-tumor activity: 20 mg/kg BID peroral, subcutaneous NCI-H358 xenograft; for TGI (tumor growth inhibition): NCI-H358 xenograft, NCr nude mice
Text: as §2, §3
Studies endpoints: The major endpoints of the study included the following:
Tumor growth inhibition (TGI): TGI(%) is an indication of antitumor effectiveness, and it is expressed as: TGI (%)=100×(1−T/C). T and C were the mean tumor volume of the treated and control groups, respectively, on a given day.

[7] = Study 2: 20 mg/kg peroral BID × 27 days

SMILES	IC50 [1]	IC50 [2]	IC50 [3]	IC50 (NIH-H358 Cell Line)	IC50 [4]	Tolerability / safety of dose [5]	Oral anti-tumor activity [6]	TGI (tumor growth inhibition) ([6]; Study 1: 20 mg/kg peroral BID × 29 days)	TGI (tumor growth inhibition) [6, 7]
COc1cc(O)cc(CCOc2cc3c(cc2OC)CCN(C(=O)NCc2cocn2)C3c2ccc(C)cc2C)c1 (stereo not drawn) [Compound 1]	1500 nM	2000 nM	1500 nM	> 1000 nM	2000 nM	–	–	–	–
COc1ccc(CCOc2cc3c(cc2OC)CCN(C(=O)NCc2cocn2)C3c2ccc(C)cc2C)cc1O (stereo not drawn) [Compound 2]	200 nM	1000 nM	400 nM	299 nM	300 nM	–	–	–	–
COc1cc2c(cc1OCCc1cc(O)cc(Cl)c1)C(c1ccc(C)cc1C)N(C(=O)NCc1cocn1)CC2 (stereo not drawn) [Compound 3]	> 2000 nM	> 2000 nM	> 2000 nM	> 1000 nM	> 2000 nM	–	–	–	–
COc1ccc(CCOc2cc3c(cc2OC)CCN(C(=O)NCc2cocn2)C3c2ccc(C)cc2C)cc1N (stereo not drawn) [Compound 4]	300 nM	900 nM	200 nM	556 nM	400 nM	–	–	–	–
CCNC(=O)N1CCc2cc(OC)c(OCCc3ccc(OC)c(O)c3)cc2C1c1ccc(C)cc1C (stereo not drawn) [Compound 5, 1-(2,4-dimethylphenyl)-N-ethyl-7-(3-hydroxy-4-methoxyphenethoxy)-6-methoxy-3,4-dihydroisoquinoline-2(1H)-carboxamide]	100 nM	700 nM	100 nM	533 nM	200 nM	–	–	–	–
CCNC(=O)N1CCc2cc(OC)c(OCCc3ccc(OC)c(N)c3)cc2C1c1ccc(C)cc1C (stereo not drawn) [Compound 6, 7-(3-amino-4-methoxyphenethoxy)-1-(2,4-dimethylphenyl)-N-ethyl-6-methoxy-3,4-dihydroisoquinoline-2(1H)-carboxamide]	100 nM	600 nM	200 nM	125 nM	200 nM	tolerate 20 mg/kg BID and safe	significant oral anti-tumor activities	27.09%	–
CCNC(=O)N1CCc2cc(OC)c(OCCc3ccc(F)c(N)c3)cc2C1c1ccc(C)cc1C (stereo not drawn) [Compound 7]	600 nM	600 nM	900 nM	531 nM	800 nM	–	–	–	–
CCNC(=O)N1CCc2cc(OC)c(OCCc3ccc(OC)c([N+](=O)[O-])c3)cc2C1c1ccc(C)cc1C (stereo not drawn) [Compound 8]	200 nM	900 nM	200 nM	> 3000 nM	200 nM	–	–	–	–
CCNC(=O)N1CCc2cc(OC)c(OCCc3ccc(N)c(OC)c3)cc2C1c1ccc(C)cc1C (stereo not drawn) [Compound 9, 7-(4-amino-3-methoxyphenethoxy)-1-(2,4-dimethylphenyl)-N-ethyl-6-methoxy-3,4-dihydroisoquinoline-2(1H)-carboxamide]	200 nM	1000 nM	400 nM	645 nM	300 nM	–	–	–	–
CCNC(=O)N1CCc2cc(OC)c(OCCc3ccc(OC)c(N)c3)cc2C1c1ccc(C(F)(F)F)cc1C (stereo not drawn) [Compound 10]	100 nM	900 nM	300 nM	360 nM	200 nM	–	–	–	–
CCNC(=O)N1CCc2cc(OC)c(OCCc3ccc(OC)c(N)c3)cc2C1c1ccc(OC)cc1C (stereo not drawn) [Compound 11]	100 nM	800 nM	200 nM	413 nM	200 nM	tolerate 20 mg/kg BID and safe	significant oral anti-tumor activities	–	48.22%
CCNC(=O)N1CCc2cc(OC)c(OCCc3ccc(OC)c(N)c3)cc2C1c1ccc(Cl)cc1C (stereo not drawn) [Compound 13]	100 nM	1000 nM	300 nM	147 nM	300 nM	tolerate 20 mg/kg BID and safe	significant oral anti-tumor activities	–	26.99%
COc1cc(CCOc2cc3c(cc2OC)CCN(C(=O)NCC(F)(F)F)C3c2ccc(F)cc2C)ccc1N (stereo not drawn) [Compound 46]	100 nM	1000 nM	500 nM	–	300 nM	–	–	–	–
COc1ccc(CCOc2cc3c(cc2OC)CCN(C(=O)N[C@H](C)C(F)(F)F)C3c2ccc(C)cc2C)cc1N (stereo partly drawn) [Compound 47]	400 nM	> 2000 nM	600 nM	963 nM	> 1000 nM	–	–	–	–
COc1ccc(CCOc2cc3c(cc2OC)CCN(C(=O)N[C@@H](C)C(F)(F)F)C3c2ccc(C)cc2C)cc1N (stereo partly drawn) [Compound 48]	40 nM	> 1000 nM	100 nM	371 nM	500 nM	–	–	–	–
COc1cc2c(cc1OCCc1ccc(OC)c([N+](=O)[O-])c1)C(c1ccc(C)cc1C)N(C(=O)NCc1cocn1)CC2 (stereo not drawn) [Compound 49]	> 1000 nM	> 2000 nM	> 800 nM	–	1500 nM	–	–	–	–
COc1ccc(C2c3cc(OCCc4ccc(OC)c(N)c4)c(OC)cc3CCN2C(=O)N[C@@H](C)C(F)(F)F)c(C)c1 (stereo partly drawn) [Compound 50]	150 nM	> 2000 nM	500 nM	767 nM	200 nM	–	–	–	–
CCNC(=O)N1CCc2cc(OC)c(OCCc3ccc(OC)c(N)c3)cc2C1c1ccc(Br)cc1C (stereo not drawn) [Compound 51]	> 1000 nM	200 nM	150 nM	178 nM	70 nM	–	–	–	–
CCNC(=O)N1CCc2cc(OC)c(OCCc3ccc(OC)c(N)c3)cc2C1c1ccc(N(C)C)cc1C (stereo not drawn) [Compound 52]	200 nM	> 2000 nM	1000 nM	> 1000 nM	1000 nM	–	–	–	–
